# Results as given in PMC10906223 (JCI Insight, 2024).
# Values joined by “and” are separate entries in the source; they are usually repeats but may differ in a detail not shown here. Identical values can stand only once.
# Experiments:
# [1] = system: murine dispersed islet cells; assay: Glucagon secretion from murine dispersed islet cells; assay type: cell-based, mouse; settings: for Relative secretion of glucagon: one value per mouse
# Procedure: Pancreata of nondiabetic C57BL/6J mice were digested using collagenase P (Roche Diagnostics, catalog 11213873001), and islets were manually picked up using a stereomicroscope (ZEISS Stemi 305). […] Isolated mouse islets or provided human islets were dispersed as described ([28]). Briefly, 100–120 islets were washed 2 times using modified HBSS, then dispersed in 600 μL Accutase (Innovative Cell Technologies, catalog AT-104) by gently pipetting up and down for 7 minutes at 37°C. […] Following refreshing of KRBH, cells were dispensed in 8 microfuge tubes (2,000 cells/tube) and treated with WCDD301, preclustered Ephrin-A5 Fc, or preclustered Fc in the presence or absence of the competitive inhibitor of EphA4 receptor, rhyncophylline ([60]) (MilliporeSigma, catalog SML2345). In the presence or absence of these effectors, secretion assay was performed sequentially as shown in Supplemental Table 5. […] Preclustering of Ephrin-A5 Fc was done by mixing Ephrin-A5 Fc or Fc alone (BioLegend, catalog 790102) with anti-Fc antibody (Invitrogen, catalog A16086) (1:10 molar ratio) 20 minutes before treatment ([62]). […] Shedding of cleaved EphA4 was measured from the cell culture medium. Experiments were performed by dispersion of 200 islets, and EphA4 levels in media were measured by EphA4 ELISA (ABclonal, catalog RK06572).
# [2] = Plasma stability assay, human plasma; assay type: in vitro ADME; settings: for Ln (% Remaining): human plasma, 37°C, Figure 5A
# Procedure: Pooled frozen plasma of CD-1 mice (n = 20; catalog MSE00PLK2M2N, Beijing Vital River Laboratory Animal Technology) or humans (n = 6, catalog […]2P2N, Bioreclamation IVT), equal numbers of males and females, was thawed in a 37°C water bath, and residual clots were removed by centrifugation (500g for 5 minutes). Plasma (98 μL) was aliquoted in each well of 96-well reaction plates using an Apricot automation workstation. WCDD301 (100 μM) or propantheline bromide (100 μM, as a positive control) was added (2 μL/well) to sets of wells assigned to blank or time points (T0, T10, T30, T60, and T120 minutes) and incubated at 37°C. At each time point, the reaction was stopped by adding stop solution (500 μL; a mixture of 200 ng/mL of tolbutamide and labetalol in acetonitrile), mixed thoroughly, sealed, shaken (20 minutes), and centrifuged (1,750g, 4°C, 20 minutes). A total of 150 μL of the supernatant from each well of the reaction plate was transferred to its corresponding bioanalysis plate for LC-MS/MS analysis. The remaining level (%) of the WCDD301 was calculated using the following equation: remaining (%) = (PAR at each time point/PAR at T0) × 100. PAR stands for the peak area ratio of the WCDD301 versus internal standard.
# NOD mice = assay: Blood chemistry parameters in WCDD301-treated NOD mice; assay type: in vivo, mouse
# Procedure: (§1) Terminal blood was collected into microfuge tubes containing K2-EDTA (supplemented by 45 mM phenylmethylsulphonyl fluoride and 0.77 μM aprotinin) through cardiac puncture. Plasma was separated by centrifugation (2,000g for 10 minutes at 4°C) and kept at –80°C until analysis. Plasma samples with hemolysis were excluded from the study. […] Values of BUN, creatinine, ALB, ALT, and AST were determined by a Roche Cobas C501 Autoanalyzer as performed by the Washington University Diabetes Research Center Translational Diagnostics Core. Reference intervals of blood chemistry parameters for inbred NOD mice were extracted from the Mouse Phenome Database (https://phenome.jax.org/).
# [3] = system: α cells of NOD mice islets; assay: EphA4 signal in α cells of pancreatic slices of NOD mice; assay type: in vivo, mouse; settings: WCDD301-treated NOD mice; diabetic 12.64 ± 1.12, nondiabetic 18.62 ± 1.09
# Procedure: Pancreata of NOD mice (females, n = 3 per group) from nondiabetic, diabetic placebo-treated, and diabetic WCDD301-treated cohorts were excised; fixed in 10% buffered formalin for 5 days; and treated with ethanol 70% for 2 days before paraffin embedding. The paraffin-embedded tissue blocks were longitudinally sectioned in 5 μm slices and fixed on microscope slides. Following deparaffinization (through incubation in graded xylene, graded ethanol, and PBS), permeabilization (using 0.1% Triton X-100 in PBS), and background blocking (using 5% BSA solution containing 0.1% Tween 20), samples were incubated with primary antibodies (mouse anti-glucagon, Abcam, catalog ab10988; above-mentioned rabbit anti-EphA4), secondary antibodies (goat anti-mouse IgG Alexa Fluor 488; Invitrogen, catalog A-11001; goat anti-rabbit IgG Alexa Fluor 633, Invitrogen, catalog A-21070), SPY555-Actin (Cytoskeleton, catalog SC202), and DAPI. Image acquisition and analysis were performed as for dispersed islet cells. […] ROIs were manually drawn around each islet, background signal was removed by thresholding, and intensity of glucagon signal was determined and normalized by the islet surface area. To determine sizes of α cells per islet, ROIs were manually drawn around α cells in each islet. […]
# diabetic NOD mice [4] = assay: Daily urine glucose in NOD mice; assay type: in vivo, mouse
# Procedure: We preweighed WCDD301 into microfuge tubes and reconstituted it using deionized water. Using a 10 μL pipette tip, we placed the calculated dose of WCDD301 (at the volume range of 1–1.5 μL) within the center of pearls. WCDD301 was placed into pearls 30–45 minutes before administration. For oral administration of pearls, we designed an applicator using a disposable plastic transfer pipette and syringe plunger lubricated with olive oil. Food intake and body weight in each experimental group (diabetic WCDD301-treated, diabetic placebo-treated, and nondiabetic placebo-treated NOD mice) were monitored daily for 4 weeks. Urine glucose was measured from individually caged NOD mice (nondiabetic placebo treated n = 2, diabetic placebo treated n = 2, and diabetic WCDD301 treated n = 4, 21–23 weeks old) with metabolic cages. Urine glucose was monitored every 24 hours for 10 days by semiquantitative measurements (P-STICKS, Millpledge Veterinary).
# diabetic NOD mice [5] = assay: Plasma somatostatin in NOD mice; assay type: in vivo, mouse; set-up: unit not given beside the values; settings: WCDD301 group of NOD mice; quantity not given
# Procedure: as §1
smiles,measurement,setting,value
"CC(=O)OCC(N)(COC(C)=O)COC(C)=O [WCDD301, 2-(acetoxymethyl)-2-aminopropane-1,3-diyl diacetate]",Effect on arginine-stimulated glucagon secretion,"[1]; 1 mM and 11 mM glucose, Arg 25 mM, 301 3 µM, E 4 µg/mL, Supplemental Figure 2",its effect was suppressed
same,Effect on glucagon secretion,"[1]; 11 mM glucose, Figure 1F",suppressed glucagon secretion
same,Secretion of glucagon,"[1]; 301 (1.5 µM) + Rhy (2.5 µM), Glucose (1 mM), Figure 1H",1.25 and 1.09 and 1.1 and 1.05 and 1
same,Secretion of glucagon,"[1]; 301 (1.5 µM) + Rhy (2.5 µM), Glucose (11 mM), Figure 1H",0.64 and 0.69 and 0.7 and 0.75 and 0.72
same,Relative secretion of glucagon,"[1]; 301 (1.5 µM), Glucose (1 mM), Figure 1F",0.81 and 0.78 and 0.75 and 0.68 and 0.86
same,Relative secretion of glucagon,"[1]; 301 (1.5 µM), Glucose (11 mM), Figure 1F",0.91 and 0.85 and 1.05 and 0.78 and 1.01
same,Secretion of glucagon,"[1]; 301 (3 µM) + Rhy (2.5 µM), Glucose (1 mM), Figure 1H",0.87 and 0.81 and 0.9 and 0.85 and 0.8
same,Secretion of glucagon,"[1]; 301 (3 µM) + Rhy (2.5 µM), Glucose (11 mM), Figure 1H",0.41 and 0.5 and 0.46 and 0.45 and 0.48
same,Relative secretion of glucagon,"[1]; 301 (3 µM), Glucose (1 mM), Figure 1F",0.89 and 0.7 and 0.75 and 0.68
same,Relative secretion of glucagon,"[1]; 301 (3 µM), Glucose (11 mM), Figure 1F",0.83 and 0.75 and 0.7 and 0.8 and 0.87
same,Glucagon secretion in presence of rhyncophylline,"[1]; WCDD301 3 μM, Figure 1H",outcompeted the inhibitor
same,half-life at 2 µM,"[2]; both sexes, human, plasma",4.82 h
same,Stability in human plasma versus mouse plasma,[2]; human higher than mouse,> 2.7 fold
same,Ln (% Remaining),[2]; 10 min,-0.03128
same,Ln (% Remaining),[2]; 30 min,-0.148
same,Ln (% Remaining),[2]; 60 min,0.05816
same,Ln (% Remaining),[2]; 120 min,0.01827
same,"Blood chemistry markers (BUN, creatinine, ALB, ALT, AST)",NOD mice; WCDD301-treated animals,remained in the normal range
same,Creatinine (CREAT),"NOD mice; non-diabetic NOD mice, 19-week-old, treated with WCDD301, mean ± SEM, n=5, reference interval 0.2-0.5",0.2 ± 0.1 mg/dL
same,Albumin (ALB),"NOD mice; non-diabetic NOD mice, 19-week-old, treated with WCDD301, mean ± SEM, n=5, reference interval 1.72-3.54",3 ± 0.1 g/dL
same,Alanine aminotransferase (ALT),"NOD mice; non-diabetic NOD mice, 19-week-old, treated with WCDD301, mean ± SEM, n=5, reference interval 5-394",20.5±9.5 IU/L
same,Blood urea nitrogen (BUN),"NOD mice; non-diabetic NOD mice, 19-week-old, treated with WCDD301, mean ± SEM, n=5, reference interval 10-79",21 ± 2.3 mg/dL
same,Aspartate aminotransferase (AST),"NOD mice; non-diabetic NOD mice, 19-week-old, treated with WCDD301, mean ± SEM, n=5, reference interval 18-586",99.5±57.5 IU/L
same,EphA4 signal within α cells,[3],21.84 ± 1.14 AU
same,Daily urine glucose (Figure 7D),"diabetic NOD mice [4]; Diabetic, WCDD301 treated, Day 10",0
same,"Urine glucose, daily monitoring",diabetic NOD mice [4]; diabetic WCDD301-treated mice,phenotypes similar to nondiabetic placebo-treated mice
same,Plasma somatostatin (Figure 7C),diabetic NOD mice [5],310.49 and 318.85 and 327.2 and 342.5
